Test results from patent US20060172993A1 (priority 2002, published 2006).
Marks after values point to notes of the source that are not given here.

How the values were obtained:
Assay type in all cases: in vivo, human
[1] = system: Patients diagnosed with Alzheimer's Disease; assay: Discontinuation of trial medication
[2] = system: Patients diagnosed with Alzheimer's Disease; assay: CIBIC-plus (Clinician's Interview Based Impression of Change Plus Family Input)
Procedure: (§1) Subjects in the Placebo group received 21 weeks (5 months) of placebo medication.
The CIBIC-plus score was a second primary variable. An independent, experienced and properly trained clinician provided a global impression of the subject's deterioration or improvement over the course of the trial, based on separate interviews with the subject and caregivers. If helpful, the CIBIC rater audiotaped or videotaped the baseline interview for future reference.
The CIBIC-plus was performed at visit 2, 3, 4, and 5 (baseline, week 4, week 13, and month 5 or upon early discontinuation of trial medication intake). Only a trained CIBIC rater performed the test.
For ordinal categorical variables such as the CIBIC-plus score, the Van Elteren test controlling for investigator was used for the between group comparison. For the nominal data (e.g., events rates), the Cochran-Mantel-Haenszel test for general association controlling for investigator was used. A linear contrast on the proportion of patients that stay the same or improve was used to test for increasing response with increasing dose.

[3] = system: Patients diagnosed with Alzheimer's Disease; assay: ADAS-cog/11 cognitive subscale, 5-month placebo-controlled trial; conditions: for ADAS-cog/11 responders, change ≦ 0 points, % / ADAS-cog/11 responders, change ≦ −4 points, % / ADAS-cog/11 responders, change ≦ −7 points, % / ADAS-cog/11 responders, change ≦ −10 points, %: Month 5
Description: as §1
The ADAS consists of two parts—a cognitive subscale and a behavioral subscale. The behavioral subscale was not be used in this study. The cognitive subscale, the ADAS--cog-11, consisted of Word Recall and Word Recognition memory tests, Object and Finger Naming, Commands, Constructional Praxis, Ideational Praxis, Orientation, Remembering Test Instructions, Spoken language Ability, Comprehension of Spoken language and Word Finding Difficulty was the primary variable in this study.
The ADAS was performed at visits 1, 2, 3, 4 and 5 (screening, baseline, week 4, week 13 and month 5 or upon early discontinuation of trial medication intake). For word recall and word recognition two parallel wordlists, list A and list B were employed. List A was used at visits 1 and 3, List B at visits 2, 4, and 5 or upon early discontinuation of trial medication intake. For practical reasons the words for word recognition was presented only once. The total score of the 11 cognitive items on the original ADAS cognitive subscale (ADAS-cog/11, Range: 0-70) was recorded.
Between treatment groups comparisons (with particular focus on differences from placebo) were done at each scheduled time interval and for each endpoint imputation scheme. These comparisons will be based on the change from baseline scores for efficacy parameters with baseline (e.g., ADAS-cog/11) and the original scored for efficacy parameters without baseline e.g., CIBIC-plus).
For continuous data, a two-way analysis of variance (ANOVA) model with treatment and investigator as factors were used to compare the treatment groups for the change from baseline data. The interaction between treatment and investigator was examined. The impact of the baseline score on change from baseline was evaluated. […] If the parametric methods were deemed inappropriate (normality assumption violated), nonparametric methods such as two-way ANOVA on ranked data, Van Elteren test, controlling for investigator, was used. Following ANOVA, Fisher's LSD procedure was used for pairwise comparisons between each galanthamine group and the placebo group. A linear contrast on the main effect for treatment was used to test the dose response relationship.

[4] = system: Patients diagnosed with Alzheimer's Disease; assay: ADCS/ADL scale (Activities of Daily Living)
Description: as §1
The ADCS/ADL scale is a 23-item informant-based assessment scale measuring widely applicable daily activities appropriate for patients in the mild to moderate category of Alzheimer's Disease. The 23 items were selected for measurement from the larger set of 45 items studied by Galasko et al (Alzheimer Disease and Associated Disorders, Vol 11, Suppl. 2, 1997). These individual items were scored from 0-3 to […], depending on the question, with a possible total score of 78. A higher score indicated a higher functioning patient.
The items and scoring were as follows: • Eating (0-3) • Walking (0-3) • Toileting (0-3) • Bathing (0-3) • Grooming (0-3) • Dressing • selection of clothes (0-3) • physical performance (0-4) • Telephone (0-5) • Television (0-3) • Conversation (0-3) • Dishes (0-3) • Managing personal belongings (0-3) • Obtaining beverages (0-3) • Making a meal or snack (0-4) • Disposal of garbage (0-3) • Travel outside home (0-4) • Shopping (0-4) • Keeping appointments (0-3) • Ability to be left alone (0-3) • Current events (0-3) • Reading (0-2) • Writing (0-3) • Hobbies (0-3) • Household appliances (0-4)
An additional secondary indication captures overall changes in Activities of daily Living (ADL) performances as measured by the Alzheimer's Disease Cooperative Study Activities of Daily Living (ACDS/ADL) scale. As mentioned above this scale is comprised of 23 items that have been tested and validated in patients with mild to moderately severe Alzheimer's disease.

SMILES: COc1ccc2c3c1O[C@H]1C[C@@H](O)C=C[C@@]31CCN(C)C2 [GAL, galantamine]
- DC due to adverse event, % ([1]; 8 mg/day): 6%
- Total discontinued (DC), % ([1]; 8 mg/day): 23%
- DC due to adverse event, % ([1]; 16 mg/day): 7%
- Total discontinued (DC), % ([1]; 16 mg/day): 22%
- DC due to adverse event, % ([1]; 24 mg/day): 10%
- Total discontinued (DC), % ([1]; 24 mg/day): 22%
- CIBIC-plus at Month 5 improved/no change, % of patients ([2]; 8 mg/day, LOCF): (53%)
- CIBIC-plus at Month 5 improved/no change, % of patients ([2]; 8 mg/day, observed case): (51%)
- CIBIC-plus at Month 5 improved/no change, % of patients ([2]; 16 mg/day, LOCF): (66%)***^†
- CIBIC-plus at Month 5 improved/no change, % of patients ([2]; 16 mg/day, observed case): (68%)***^†
- CIBIC-plus at Month 5 improved/no change, % of patients ([2]; 16 mg/day, observed case, listed as galantamine): 68%
- CIBIC-plus at Month 5 improved/no change, % of patients ([2]; 24 mg/day, LOCF): (64%)***^‡
- CIBIC-plus at Month 5 improved/no change, % of patients ([2]; 24 mg/day, observed case): (64%)***^‡
- CIBIC-plus at Month 5 improved/no change, % of patients ([2]; 24 mg/day, observed case, listed as galantamine): 64%
- Change from baseline in ADAS-cog/11 at Month 5, Mean ([3]; 8 mg/day, LOCF): 0.4
- ADAS-cog/11 responders, change ≦ 0 points, % ([3]; 8 mg/day): (46.5) %
- ADAS-cog/11 responders, change ≦ −4 points, % ([3]; 8 mg/day): (25.7) %
- ADAS-cog/11 responders, change ≦ −7 points, % ([3]; 8 mg/day): (13.9) %
- ADAS-cog/11 responders, change ≦ −10 points, % ([3]; 8 mg/day): (5.9) %
- Change from baseline in ADAS-cog/11 at Month 5, Mean ([3]; 8 mg/day, observed case): 0.1
- Change from baseline in ADAS-cog/11 at Month 5, Mean ([3]; 16 mg/day, LOCF): −1.4
- ADAS-cog/11 responders, change ≦ 0 points, % ([3]; 16 mg/day): (65.4)***^‡ %
- ADAS-cog/11 responders, change ≦ −4 points, % ([3]; 16 mg/day): (35.6)***♦ %
- ADAS-cog/11 responders, change ≦ −7 points, % ([3]; 16 mg/day): (15.9)** %
- ADAS-cog/11 responders, change ≦ −10 points, % ([3]; 16 mg/day): (7.2) %
- ADAS-cog/11 responders, change ≦ −7 points, % ([3]; 16 mg/day, listed as galantamine): 15.9%
- Change from baseline in ADAS-cog/11 at Month 5, Mean ([3]; 16 mg/day, observed case): −1.5
- Change from baseline in ADAS-cog/11 at Month 5, Mean ([3]; 24 mg/day, LOCF): −1.4
- ADAS-cog/11 responders, change ≦ 0 points, % ([3]; 24 mg/day): (64.9)***^‡ %
- ADAS-cog/11 responders, change ≦ −4 points, % ([3]; 24 mg/day): (37.0)***^† %
- ADAS-cog/11 responders, change ≦ −7 points, % ([3]; 24 mg/day): (22.3)***♦♦ %
- ADAS-cog/11 responders, change ≦ −10 points, % ([3]; 24 mg/day): (10.4)** %
- ADAS-cog/11 responders, change ≦ −7 points, % ([3]; 24 mg/day, listed as galantamine): 22.3%
- Change from baseline in ADAS-cog/11 at Month 5, Mean ([3]; 24 mg/day, observed case): −1.8
- Change in Total ADL score from baseline at Month 5, Mean ([4]; 8 mg/day, LOCF): −3.2
- Change in Total ADL score from baseline at Month 5, Mean ([4]; 8 mg/day, observed case): −3.1
- Change in Total ADL score from baseline at Month 5, Mean ([4]; 16 mg/day, LOCF): −0.7
- Change in Total ADL score from baseline at Month 5, Mean ([4]; 16 mg/day, observed case): −0.5
- Change in Total ADL score from baseline at Month 5, Mean ([4]; 24 mg/day, LOCF): −1.5
- Change in Total ADL score from baseline at Month 5, Mean ([4]; 24 mg/day, observed case): −1.6
